# Measured values reported in PubChem BioAssay (NCI).
#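 Exposure lasted 48 hours, with cells grown in 96-well plates and compounds tested at five concentrations. The concentration for 50% growth inhibition is given as GI50. TGI: concentration producing complete growth inhibition.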
# Tests used:
# Test in all cases: growth of human tumour cells (NCI), 48 h
# 786-0 renal = tested on: 786-0 renal
# CAKI-1 renal = tested on: CAKI-1 renal
# HS 578T breast = tested on: HS 578T breast
# K-562 leukemia = tested on: K-562 leukemia
# MDA-MB-231 breast = tested on: MDA-MB-231 breast
# OVCAR-8 ovarian = tested on: OVCAR-8 ovarian
# RPMI-8226 leukemia = tested on: RPMI-8226 leukemia
# SF-268 CNS = tested on: SF-268 CNS
# SR leukemia = tested on: SR leukemia
# TK-10 renal = tested on: TK-10 renal
SMILES,GI50 (786-0 renal) [µM],TGI (786-0 renal) [µM],GI50 (CAKI-1 renal) [µM],TGI (CAKI-1 renal) [µM],GI50 (HS 578T breast) [µM],TGI (HS 578T breast) [µM],GI50 (K-562 leukemia) [µM],TGI (K-562 leukemia) [µM],GI50 (MDA-MB-231 breast) [µM],TGI (MDA-MB-231 breast) [µM],GI50 (OVCAR-8 ovarian) [µM],TGI (OVCAR-8 ovarian) [µM],GI50 (RPMI-8226 leukemia) [µM],TGI (RPMI-8226 leukemia) [µM],GI50 (SF-268 CNS) [µM],TGI (SF-268 CNS) [µM],GI50 (SR leukemia) [µM],TGI (SR leukemia) [µM],GI50 (TK-10 renal) [µM],TGI (TK-10 renal) [µM]
NC(=O)c1cccc(Nc2nccc(Nc3cccc4[nH]ncc34)n2)c1,10.8,> 25,14.6,> 25,0.557,3.21,4.53,> 25,8.02,> 25,8.11,> 25,> 25,> 25,8.45,> 25,8.72,> 25,20.5,> 25
CCN(CC)CCCC(C)N=C(C1=C(C(=NC(C)CCCN(CC)CC)c2cccc(OC)c2)C(=O)NC1=O)c1cccc(OC)c1 (stereo not drawn),1.8,7.86,1.66,8.62,4.24,14.5,1.34,4.2,1.17,3.78,1.18,6.9,1.23,3.26,1.97,8.29,1.36,4.31,1.26,3.44
CC1(C)C2CC(=O)C1(C)C(OCc1ccccc1)C2 (stereo not drawn),–,> 100,–,> 100,–,77,–,77.6,–,> 100,–,> 100,–,> 100,–,> 100,–,81.1,–,> 100
O=C(/C=C/c1ccccc1)n1c(-c2ccc(Cl)cc2)nc2ccccc21,2.05,7.63,–,–,2.57,17.9,2.09,11.8,1.88,5.18,0.752,10.3,0.614,3.82,2.1,6.14,0.379,1.88,2.35,7.93
Cc1nc(N2CCC3(CC2)CO[C@@H](C)[C@H]3N)c(CO)nc1Sc1ccnc(N)c1Cl,12.8,> 100,0.194,> 100,11,99.1,0.305,> 100,> 100,> 100,75.6,> 100,49.3,> 100,12.8,> 100,11.9,> 100,0.336,> 100
Cc1ccc(C)c(C2NC(=O)c3ccccc3N2)c1 (stereo not drawn),–,> 64,–,35.3,–,7.73,–,> 30.1,–,72.7,–,> 79.6,–,16.4,–,> 100,–,> 27.4,–,> 100
CN1C(=O)N[C@H]2[C@@H]3NC(=O)c4ccc(Br)n4[C@@H]3C[C@]21O,0.223,1.82,2.4,13.1,0.102,1.42,0.0827,1.43,0.165,2.69,0.259,1.93,0.0831,0.417,0.115,2.63,0.0335,0.639,0.429,4.51
